Patent US4368329A, “Process of preparing thiopyrylium sensitizing dyes” (Minnesota Mining and Manufacturing Company, priority 1981, dated 1983)

Test: Absorption maximum (λmax) and log ε of the dye in solution
Type: physicochemical
Settings: CHCl3

λ max. | log ε max. | Structure (SMILES)
654 | – | Nc1ccc(-c2cc(-c3ccccc3)cc(-c3ccccc3)[s+]2)cc1N [Example 29]
620 | 5.05 | CCN(Cc1ccccc1)c1ccc(-c2cc(-c3ccccc3)cc(-c3ccccc3)[s+]2)cc1 [Example 10]
620 | 4.53 | CCN(Cc1ccccc1)c1ccc(-c2cc(-c3ccccc3)cc(-c3ccccc3)[s+]2)cc1 [Example 8]
600 | 4.32 | Cc1cc(-c2cc(-c3ccccc3)cc(-c3ccccc3)[s+]2)ccc1N [Example 12]
638 | 4.31 | OCCN(CCO)c1ccc(-c2cc(-c3ccccc3)cc(-c3ccccc3)[s+]2)cc1 [Example 26]
638 | 4.50 | CCN(CC)c1ccc(-c2cc(-c3ccccc3)cc(-c3ccccc3)[s+]2)cc1 [Example 7]
592 | 4.34 | Nc1ccc(-c2cc(-c3ccccc3)cc(-c3ccccc3)[s+]2)cc1 [Example 2]
612 | 4.32 | COc1cc(-c2cc(-c3ccccc3)cc(-c3ccccc3)[s+]2)ccc1N [Example 21]
675 nm | – | c1ccc(-c2cc(-c3ccccc3)[s+]c(-c3cc4c5c(c3)CCCN5CCC4)c2)cc1 [Example 31, 2,4-diphenyl-6(julolidin-6-yl) thiopyrylium trifluoromethane sulfonate]
633 | 4.55 | CNc1ccc(-c2cc(-c3ccccc3)cc(-c3ccccc3)[s+]2)cc1 [Example 4]
564 | 4.30 | Cc1cc(N)ccc1-c1cc(-c2ccccc2)cc(-c2ccccc2)[s+]1 [Example 14]
602 | 4.36 | COc1cc(-c2cc(-c3ccccc3)cc(-c3ccccc3)[s+]2)c(OC)cc1N [Example 25]
650 | 4.39 | c1ccc(Nc2ccc(-c3cc(-c4ccccc4)cc(-c4ccccc4)[s+]3)cc2)cc1 [Example 20]
602 | 4.50 | c1ccc(CN(Cc2ccccc2)c2ccc(-c3cc(-c4ccccc4)cc(-c4ccccc4)[s+]3)cc2)cc1 [Example 11]
634 | 4.31 | c1ccc(-c2cc(-c3ccccc3)[s+]c(-c3ccc(NC4CCCCC4)cc3)c2)cc1 [Example 19]
602 | 4.32 | CCc1cc(-c2cc(-c3ccccc3)cc(-c3ccccc3)[s+]2)cc(CC)c1N [Example 18]
615 | 5.18 | CCN(Cc1ccccc1)c1ccc(-c2cc(-c3ccccc3)cc(-c3ccccc3)[s+]2)cc1 [Example 9]
616 | – | Cc1cc(N(C)C)ccc1-c1cc(-c2ccccc2)cc(-c2ccccc2)[s+]1 [Example 16]
586 | 4.27 | COc1cc(N)ccc1-c1cc(-c2ccccc2)cc(-c2ccccc2)[s+]1 [Example 23]
564 | 4.00 | Nc1ccc(-c2cc(-c3ccccc3)cc(-c3ccccc3)[s+]2)c(Cl)c1 [Example 27]
600 | 4.32 | Cc1cc(-c2cc(-c3ccccc3)cc(-c3ccccc3)[s+]2)cc(C)c1N [Example 17]

Structure (SMILES) | λ max. | log ε max.
CN(C)c1ccc(-c2cc(-c3ccccc3)cc(-c3ccccc3)[s+]2)cc1 [Example 6] | 622 | 4.86
CN(C)c1ccc(-c2cc(-c3ccccc3)cc(-c3ccccc3)[s+]2)cc1 [Example 5] | 624 | 4.77

Same assay, conditions: EtOH

log ε max. | λ max. | Structure (SMILES)
4.32 | 596 | Cc1cc(-c2cc(-c3ccccc3)cc(-c3ccccc3)[s+]2)ccc1N [Example 13]
4.06 | 588 | Nc1ccc(-c2cc(-c3ccccc3)cc(-c3ccccc3)[s+]2)c(Cl)c1 [Example 28]
4.19 | 588 | COc1cc(-c2cc(-c3ccccc3)cc(-c3ccccc3)[s+]2)ccc1N [Example 22]
4.16 | 566 | COc1cc(N)ccc1-c1cc(-c2ccccc2)cc(-c2ccccc2)[s+]1 [Example 24]
4.21 | 584 | Nc1ccc(-c2cc(-c3ccccc3)cc(-c3ccccc3)[s+]2)cc1 [Example 1, 2-(4-aminophenyl)-4,6-diphenylthiopyrylium perchlorate]
4.16 | 556 | Cc1cc(N)ccc1-c1cc(-c2ccccc2)cc(-c2ccccc2)[s+]1 [Example 15]
4.38 | 596 | CNc1ccc(-c2cc(-c3ccccc3)cc(-c3ccccc3)[s+]2)cc1 [Example 3]

Same assay, conditions: Example 1, first band (584); solvent not given

logε | Structure (SMILES)
4.21 | Nc1ccc(-c2cc(-c3ccccc3)cc(-c3ccccc3)[s+]2)cc1 [Example 1, 2-(4-aminophenyl)-4,6-diphenylthiopyrylium perchlorate]

Same assay, conditions: Example 1, first band; solvent not given

λ max. | Structure (SMILES)
584 | Nc1ccc(-c2cc(-c3ccccc3)cc(-c3ccccc3)[s+]2)cc1 [Example 1, 2-(4-aminophenyl)-4,6-diphenylthiopyrylium perchlorate]

Same assay, conditions: Example 1, second band (367); solvent not given

logε | Structure (SMILES)
4.27 | Nc1ccc(-c2cc(-c3ccccc3)cc(-c3ccccc3)[s+]2)cc1 [Example 1, 2-(4-aminophenyl)-4,6-diphenylthiopyrylium perchlorate]

Same assay, conditions: Example 1, second band; solvent not given

λ max. | Structure (SMILES)
367 | Nc1ccc(-c2cc(-c3ccccc3)cc(-c3ccccc3)[s+]2)cc1 [Example 1, 2-(4-aminophenyl)-4,6-diphenylthiopyrylium perchlorate]
